The IC50 is the concentration that inhibits the measured activity by half.

Chain of TNFα (P01375 77-233 limits assumed): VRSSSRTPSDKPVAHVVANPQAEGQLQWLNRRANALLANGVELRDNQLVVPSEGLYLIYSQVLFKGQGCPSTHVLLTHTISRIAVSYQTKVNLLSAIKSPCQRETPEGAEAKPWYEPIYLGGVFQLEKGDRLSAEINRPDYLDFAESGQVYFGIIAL

The first assay addresses TNFα (Homo sapiens, UniProt P01375). The experiment in a line: TNF induced HEK-Blue assay (NF-kB-driven secreted alkaline phosphatase reporter). The format is cell-based. The following applies: TNF induced HEK-Blue assay IC50 value, TNFα 0.5 ng/mL, HEK-Blue-CD40L cells, 18 h. The essentials:
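HEK-Blue-CD40L cells (NF-kB-driven SEAP reporter), 20,000/well, added after 30 min pre-incubation of compound (0.004–25 μM final) with TNFα 0.5 ng/mL final at 37 °C; 18 h incubation. SEAP read with QUANTI-Blue at 620 nm; IC50 from 4-parameter logistic fit, normalized to unstimulated and stimulated DMSO controls.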
Compound `C[C@@H](Nc1c(Cl)cnc2ccc(-c3ccc(S(C)(=O)=O)nc3)cc12)c1ccccc1F` [Example 221, (R)-3-chloro-N-(1-(2-fluorophenyl)ethyl)-6-(6-(methylsulfonyl)pyridin-3-yl)quinolin-4-amine] came in with an IC50 below 1000 nM. The same measure, in the same setting: the same measure for `Cc1ccc(C)c(Nc2c(Cl)c(C)nc3ccc(-c4cnc(C(C)(C)O)nc4)cc23)c1` [Example 1, 2-(5-(3-chloro-4-((2,5-dimethylphenyl)amino)-2-methylquinolin-6-yl)pyrimidin-2-yl)propan-2-ol]: below 1000 nM.

Still in this assay, the particulars now being: TNFα 0.5 ng/mL, HEK-Blue-CD40L cells, 18 h; read-out: TNF induced HEK-Blue assay IC50 value.
With `CC(Nc1c(Cl)cnc2ccc(-c3cnc(N4CCNC(=O)C4)nc3)cc12)c1nc(C(=O)Nc2ccccc2)ccc1F` (racemic) [Example 38, 6-(1-((3-chloro-6-(2-(3-oxopiperazin-1-yl)pyrimidin-5-yl)quinolin-4-yl)amino)ethyl)-5-fluoro-N-phenylpicolinamide], the IC50 was 1000 to 10000 nM. On the same count and under the same terms, the same measure for `CC(C)(O)c1ncc(-c2cc(F)c3ncc(Cl)c(N[C@@H](c4ccccc4F)C(F)F)c3c2)cn1` [Example 297, (S)-2-(5-(3-chloro-4-((2,2-difluoro-1-(2-fluorophenyl)ethyl)amino)-8-fluoroquinolin-6-yl)pyrimidin-2-yl)propan-2-ol]: below 1000 nM; for `C[C@@H](Nc1c(Cl)cnc2ccc(-c3cnc(C4CCN(CC(=O)O)CC4)nc3)cc12)c1ccccc1F` [Example 593, (R)-2-(4-(5-(3-chloro-4-((1-(2-fluorophenyl)ethyl)amino)quinolin-6-yl)pyrimidin-2-yl)piperidin-1-yl)acetic acid]: 1000 to 10000 nM; for `Cc1ccc(F)c([C@@H](C)Nc2c(Cl)c(C)nc3ccc(-c4cnc(C(C)(C)O)nc4)cc23)c1` [Example 334, (R)-2-(5-(3-chloro-4-((1-(2-fluoro-5-methylphenyl)ethyl)amino)-2-methylquinolin-6-yl)pyrimidin-2-yl)propan-2-ol]: below 1000 nM. `Cc1nc2ccc(-c3cnc(C(C)(C)O)nc3)cc2c(N[C@H](C)c2cc(CO)ccc2F)c1Cl` [Example 431, (R)-2-(5-(3-chloro-4-((1-(2-fluoro-5-(hydroxymethyl)phenyl)ethyl)amino)-2-methylquinolin-6-yl)pyrimidin-2-yl)propan-2-ol]: the IC50 is below 1000 nM. The same measure, in the same setting: to `Cc1nc2ccc(-c3cnc(C(C)(C)O)nc3)cc2c(N[C@H](C)c2cc(O)ccc2F)c1Cl` [Example 404, (R)-3-(1-((3-chloro-6-(2-(2-hydroxypropan-2-yl)pyrimidin-5-yl)-2-methylquinolin-4-yl)amino)ethyl)-4-fluorophenol] belongs below 1000 nM; to `CNCC(O)c1ccc(-c2cc3c(NC(C)c4ccccc4F)c(Cl)cnc3cc2F)cc1` (single isomer, unassigned) [Example 600, 1-(4-(3-chloro-7-fluoro-4-((1-(2-fluorophenyl)ethyl)amino)quinolin-6-yl)phenyl)-2-(methylamino)ethan-1-ol], below 1000 nM; to `CC(Nc1c(Cl)cnc2ccc(-c3cnc(C(C)(C)O)nc3)cc12)c1nc(C(N)=O)ccc1F` (racemic) [Example 28, 6-(1-((3-chloro-6-(2-(2-hydroxypropan-2-yl)pyrimidin-5-yl)quinolin-4-yl)amino)ethyl)-5-fluoropicolinamide], below 1000 nM. The same measure, in the same setting: the same measure for `CC(Nc1c(Cl)cnc2cc(F)c(-c3ccc(C(O)CO)cc3)cc12)c1ccccc1F` (stereo not drawn) [Example 256, 1-(4-(3-chloro-7-fluoro-4-((1-(2-fluorophenyl)ethyl)amino)quinolin-6-yl)phenyl)ethane-1,2-diol]: below 1000 nM; for `CC(C)(O)c1ncc(-c2ccc3ncc(Cl)c(NC(c4ccccc4F)C(F)F)c3c2)cn1` (single isomer, unassigned) [Example 55, 2-(5-(3-chloro-4-((2,2-difluoro-1-(2-fluorophenyl)ethyl)amino)quinolin-6-yl)pyrimidin-2-yl)propan-2-ol]: below 1000 nM; for `C[C@H](Nc1c(Cl)cnc2ccc(-c3cnc(C(C)(C)O)nc3)cc12)[C@H]1CCCN(S(=O)(=O)c2cnn(C)c2)C1` [Example 564, 2-(5-(3-chloro-4-(((S)-1-((S)-1-((1-methyl-1H-pyrazol-4-yl)sulfonyl)piperidin-3-yl)ethyl)amino)quinolin-6-yl)pyrimidin-2-yl)propan-2-ol]: 1000 to 10000 nM. Same read-out and setting: to `Cc1nc2ccc(-c3cnc(C(C)(C)O)nc3)cc2c(-c2ccccc2-c2ccccc2)c1Cl` [Example 353, 2-(5-(4-([1,1′-biphenyl]-2-yl)-3-chloro-2-methylquinolin-6-yl)pyrimidin-2-yl)propan-2-ol] belongs 1000 to 10000 nM; to `Cc1nc2cc(F)c(-c3cnc(C(C)(C)O)nc3)nc2c(N[C@H](C)c2cc(C(N)=O)ccc2F)c1Cl` [Example 584, (R)-3-(1-((3-chloro-7-fluoro-6-(2-(2-hydroxypropan-2-yl)pyrimidin-5-yl)-2-methyl-1,5-naphthyridin-4-yl)amino)ethyl)-4-fluorobenzamide], below 1000 nM. In the case of `Cc1nc2ccc(-c3cnc(C(C)(C)O)nc3)cc2c(N[C@@H](c2cc(Br)ccc2F)C(F)F)c1Cl` [Example 320, (S)-2-(5-(4-((1-(5-bromo-2-fluorophenyl)-2,2-difluoroethyl)amino)-3-chloro-2-methylquinolin-6-yl)pyrimidin-2-yl)propan-2-ol], the IC50 is below 1000 nM.

Take `Cc1nc2ccc(-c3cnc(C(C)(C)O)nc3)cc2c(N[C@@H](c2cc(N3CCNC3=O)ccc2F)C(F)F)c1Cl` [Example 372, (S)-1-(3-(1-((3-chloro-6-(2-(2-hydroxypropan-2-yl)pyrimidin-5-yl)-2-methylquinolin-4-yl)amino)-2,2-difluoroethyl)-4-fluorophenyl) imidazolidin-2-one]: the IC50 was below 1000 nM. Still for that read-out and setting: the same measure for `Cc1nc2ccc(C3C=NC(C(C)(C)O)=NC3)cc2c(N[C@H](C)c2cc(CO)ccc2F)c1Cl` (stereo partly drawn) [Example 432, (R)-2-(5-(3-chloro-4-((1-(2-fluoro-5-(hydroxymethyl)phenyl)ethyl)amino)-2-methylquinolin-6-yl)-4,5-dihydropyrimidin-2-yl)propan-2-ol]: below 1000 nM; for `CC(C)(O)c1ccc(-c2cc3c(N[C@@H](c4ccccc4F)C(F)F)c(Cl)cnc3cc2F)cn1` [Example 270, (S)-2-(5-(3-chloro-4-((2,2-difluoro-1-(2-fluorophenyl)ethyl)amino)-7-fluoroquinolin-6-yl)pyridin-2-yl)propan-2-ol]: below 1000 nM. For the compound `C=Cc1ccc(F)c([C@@H](C)Nc2c(Cl)cnc3cc(F)c(-c4cnc(C(C)(C)O)nc4)nc23)c1` [Example 188, (R)-2-(5-(7-chloro-3-fluoro-8-((1-(2-fluoro-5-vinylphenyl)ethyl)amino)-1,5-naphthyridin-2-yl)pyrimidin-2-yl)propan-2-ol], the IC50 is below 1000 nM. Take `C=CCc1ccc(F)c([C@@H](C)Nc2c(Cl)cnc3ccccc23)c1` [Example 452, (R)—N-(1-(5-allyl-2-fluorophenyl)ethyl)-3-chloroquinolin-4-amine]: the half-inhibitory concentration (IC50) was 1000 to 10000 nM. Still for that read-out and setting: to `Cc1nc2cc(F)c(-c3cnc(C(C)(C)O)nc3)nc2c(N[C@H](C)c2cc(C(=O)O)ccc2F)c1Cl` [Example 582, (R)-3-(1-((3-chloro-7-fluoro-6-(2-(2-hydroxypropan-2-yl)pyrimidin-5-yl)-2-methyl-1,5-naphthyridin-4-yl)amino)ethyl)-4-fluorobenzoic acid] belongs 10000 to 25000 nM; to `CC(Nc1c(Cl)cnc2cc(F)c(-c3cnc(N4CCN(C(=O)[C@H](N)CO)CC4)nc3)cc12)c1ccccc1F` (single isomer, unassigned) [Example 606], below 1000 nM. On the same count and under the same terms, to `Cc1nc2ccc(-c3cnc(N4CCNC(=O)C4)nc3)cc2c(N[C@H](C)c2cc(C(N)=O)ccc2F)c1Cl` [Example 447, (R)-3-(1-((3-chloro-2-methyl-6-(2-(3-oxopiperazin-1-yl)pyrimidin-5-yl)quinolin-4-yl)amino)ethyl)-4-fluorobenzamide] belongs below 1000 nM. The same measure, in the same setting: to `CC(Nc1c(Cl)cnc2cc(F)c(-c3ccc(C(O)CO)cc3)cc12)c1ccccc1F` (stereo not drawn) [Example 291, 1-(4-(3-chloro-7-fluoro-4-((1-(2-fluorophenyl)ethyl)amino)quinolin-6-yl)phenyl)ethane-1,2-diol] belongs below 1000 nM. For the compound `C[C@@H](Nc1c(Cl)cnc2ccc(-c3cnc(N4CCN([C@@H](CNC(=O)OC(C)(C)C)C(=O)O)CC4)nc3)cc12)c1ccccc1F` [Example 93, (S)-3-((tert-butoxycarbonyl)amino)-2-(4-(5-(3-chloro-4-(((R)-1-(2-fluorophenyl)ethyl)amino)quinolin-6-yl)pyrimidin-2-yl)piperazin-1-yl)propanoic acid], the half-inhibitory concentration (IC50) lay within 1000 to 10000 nM. With `C[C@@H](Nc1c(Cl)cnc2ccccc12)c1ccccc1C(F)(F)F` [Example 463, 3-chloro-N-(1-(2-(trifluoromethyl)phenyl)ethyl)quinolin-4-amine], the IC50 is 10000 to 25000 nM. Same read-out and setting: to `Cc1nc2ccc(-c3cnc(N4CCOCC4)nc3)cc2c(N[C@H](C)c2cc(C(N)=O)ccc2F)c1Cl` [Example 313, (R)-3-(1-((3-chloro-2-methyl-6-(2-morpholinopyrimidin-5-yl)quinolin-4-yl)amino)ethyl)-4-fluorobenzamide] belongs below 1000 nM; to `CC(Nc1c(Cl)cnc2ccc(-c3cnc(N4CCNC(=O)C4)nc3)cc12)c1nc(C(N)=O)ccc1F` (single isomer, unassigned) [Example 26, 6-(1-((3-chloro-6-(2-(3-oxopiperazin-1-yl)pyrimidin-5-yl)quinolin-4-yl)amino)ethyl)-5-fluoropicolinamide], below 1000 nM; to `Cc1nc2cc(F)c(-c3cnc(C(C)(C)O)nc3)nc2c(N[C@@H](c2cc(C(O)CO)ccc2F)C(F)F)c1Cl` (stereo partly drawn) [Example 491, 1-(3-((S)-1-((3-chloro-7-fluoro-6-(2-(2-hydroxypropan-2-yl)pyrimidin-5-yl)-2-methyl-1,5-naphthyridin-4-yl)amino)-2,2-difluoroethyl)-4-fluorophenyl)ethane-1,2-diol], below 1000 nM.

Values taken from US10865191B2, “Heterocyclic compounds useful as modulators of TNF alpha” (BRISTOL-MYERS SQUIBB COMPANY, priority 2015, dated 2020).
